Each molecule was assayed against T1, Melanin-concentrating hormone receptor 1 (Homo sapiens, UniProt Q99705) (assay: Stimulation of IP3-coupled mobilization of calcium in HEK293 cells expressing MCH-R1). Conditions: not given.
Assay type: functional, cell-based

T1 sequence (Q99705 whole entry): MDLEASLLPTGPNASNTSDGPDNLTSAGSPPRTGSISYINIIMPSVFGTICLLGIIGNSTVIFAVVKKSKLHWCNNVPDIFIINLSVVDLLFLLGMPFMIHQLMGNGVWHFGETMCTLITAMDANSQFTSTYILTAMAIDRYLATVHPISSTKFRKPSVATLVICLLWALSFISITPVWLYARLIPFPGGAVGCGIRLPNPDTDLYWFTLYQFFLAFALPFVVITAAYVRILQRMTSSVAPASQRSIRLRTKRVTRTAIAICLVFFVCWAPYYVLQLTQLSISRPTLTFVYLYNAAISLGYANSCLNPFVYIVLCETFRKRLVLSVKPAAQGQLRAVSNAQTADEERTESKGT

EC50	SMILES
370 nM	CCCc1cc(N)c2cc(NC(=O)C3CCC(c4ccc(Cl)cc4)CC3)ccc2n1 (configuration not stated)
210 nM	CCCCc1cc(N)c2cc(NC(=O)/C=C/c3ccc(C(F)(F)F)cc3)ccc2n1
910 nM	CCCc1cc(N)c2cc(NC(=O)/C=C/c3ccc(C(C)(C)C)cc3)ccc2n1
120 nM	CCCc1cc(N)c2cc(NC(=O)CCc3ccc(C(F)(F)F)cc3)ccc2n1
71 nM	CCCc1cc(N)c2cc(NC(=O)/C=C/c3ccc(C)cc3)ccc2n1
93 nM	CCCc1cc(N)c2cc(NC(=O)/C=C/c3ccc(Br)cc3)ccc2n1
110 nM	CC(C)(C)Cc1cc(N)c2cc(NC(=O)/C=C/c3ccc(C(F)(F)F)cc3)ccc2n1
990 nM	CCCc1cc(N)c2cc(NC(=O)/C=C/c3ccc(Cl)c(Cl)c3)ccc2n1
61 nM	CCCc1cc(N)c2cc(NC(=O)/C=C/c3ccc(C(F)(F)F)cc3)ccc2n1 (stereo in doubt; form 1) [listing 1 of 2 here]
200 nM	CCCc1cc(N)c2cc(NC(=O)/C=C/c3ccc(F)cc3)ccc2n1
150 nM	CCCc1cc(NC)c2cc(NC(=O)/C=C/c3ccc(C(F)(F)F)cc3)ccc2n1
500 nM	CCCc1cc(N)c2cc(NC(=O)/C=C/c3ccccc3Cl)ccc2n1
340 nM	CCCc1cc(NCC)c2cc(NC(=O)/C=C/c3ccc(C(F)(F)F)cc3)ccc2n1
75 nM	CCCc1cc(N)c2cc(NC(=O)c3ccc(-c4ccc(Cl)cc4)cc3)ccc2n1

The molecules below were run against T1, Melanin-concentrating hormone receptor 1 (assay: Inhibition of 125I-[Phe13,Tyr19]-MCH binding to human MCH-R1). Conditions: concentration not given here.

inhibition	SMILES
< 50%	CCCc1cc(O)c2cc(NC(=O)/C=C/c3ccc(C(F)(F)F)cc3)ccc2n1
< 50%	CCCc1cc(N)c2cc(NC(=O)c3ccccc3)ccc2n1

What follows are molecules tested against T1, Melanin-concentrating hormone receptor 1 (assay: Displacement of 125I-[Phe13,Tyr19]-MCH from human MCH-R1). Conditions: not given.

IC50	SMILES
40 nM	CCCc1cc(NC2CC2)c2cc(NC(=O)/C=C/c3ccc(C(F)(F)F)cc3)ccc2n1
> 4000 nM	CCCc1cc(N2CCCCC2)c2cc(NC(=O)/C=C/c3ccc(C(F)(F)F)cc3)ccc2n1
1100 nM	CCCc1cc(N)c2cc(NC(=O)/C=C/c3cccc(Cl)c3)ccc2n1
4000 nM	CCCc1cc(N)c2cc(NC(=O)Cc3ccc(C(F)(F)F)cc3)ccc2n1
2700 nM	CCCc1cc(N)c2cc(C(=O)NCCc3ccc(C(F)(F)F)cc3)ccc2n1
1000 nM	CCCc1cc(N)c2cc(NC(=O)/C=C/c3ccccc3)ccc2n1
10000 nM	CCCc1cc(N)c2cc(NC(=O)c3ccc(C(F)(F)F)cc3)ccc2n1
1100 nM	CCCc1cc(N)c2cc(NC(=O)/C=C/c3ccc(O)cc3)ccc2n1
1700 nM	CCCc1cc(N)c2cc(N(C)C(=O)CCc3ccc(C(F)(F)F)cc3)ccc2n1
4.4 nM	CCCc1cc(N)c2cc(NC(=O)C3CCC(c4ccc(Cl)cc4)CC3)ccc2n1 (configuration not stated)
8300 nM	CCCc1cc(N)c2cc(NC(=O)CCc3ccccc3)ccc2n1
1.5 nM	CCCCc1cc(N)c2cc(NC(=O)/C=C/c3ccc(C(F)(F)F)cc3)ccc2n1
22 nM	CCCc1cc(N)c2cc(NC(=O)/C=C/c3ccc(C(C)(C)C)cc3)ccc2n1
13 nM	CCCc1cc(N)c2cc(NC(=O)CCc3ccc(C(F)(F)F)cc3)ccc2n1
1100 nM	CCCc1cc(N(CC)CC)c2cc(NC(=O)/C=C/c3ccc(C(F)(F)F)cc3)ccc2n1
9 nM	CCCc1cc(N)c2cc(NC(=O)/C=C/c3ccc(C)cc3)ccc2n1
4 nM	CCCc1cc(N)c2cc(NC(=O)/C=C/c3ccc(Br)cc3)ccc2n1
5.8 nM	CC(C)(C)Cc1cc(N)c2cc(NC(=O)/C=C/c3ccc(C(F)(F)F)cc3)ccc2n1
60 nM	CCCc1cc(N)c2cc(NC(=O)/C=C/c3ccc(Cl)c(Cl)c3)ccc2n1
1.3 nM	CCCc1cc(N)c2cc(NC(=O)/C=C/c3ccc(C(F)(F)F)cc3)ccc2n1 (stereo in doubt; form 1) [listing 1 of 2 here]
130 nM	CCCc1cc(N)c2cc(NC(=O)/C=C/c3ccc(F)cc3)ccc2n1
190 nM	CCCc1cc(N)c2cc(NC(=O)/C=C/c3ccc(N)cc3)ccc2n1
1.5 nM	CCCc1cc(NC)c2cc(NC(=O)/C=C/c3ccc(C(F)(F)F)cc3)ccc2n1
120 nM	CCCc1cc(N)c2cc(NC(=O)/C=C/c3ccccc3Cl)ccc2n1
4.8 nM	CCCc1cc(NCC)c2cc(NC(=O)/C=C/c3ccc(C(F)(F)F)cc3)ccc2n1
0.7 nM	CCCc1cc(N)c2cc(NC(=O)c3ccc(-c4ccc(Cl)cc4)cc3)ccc2n1

Each molecule was assayed against Melanin-concentrating hormone receptor 2 (Homo sapiens, UniProt Q969V1) (assay: Inhibition of 125I-[Phe13,Tyr19]-MCH binding to human MCH-R2 at 2uM). Conditions: not given.
Melanin-concentrating hormone receptor 2, sequence (Q969V1 whole entry): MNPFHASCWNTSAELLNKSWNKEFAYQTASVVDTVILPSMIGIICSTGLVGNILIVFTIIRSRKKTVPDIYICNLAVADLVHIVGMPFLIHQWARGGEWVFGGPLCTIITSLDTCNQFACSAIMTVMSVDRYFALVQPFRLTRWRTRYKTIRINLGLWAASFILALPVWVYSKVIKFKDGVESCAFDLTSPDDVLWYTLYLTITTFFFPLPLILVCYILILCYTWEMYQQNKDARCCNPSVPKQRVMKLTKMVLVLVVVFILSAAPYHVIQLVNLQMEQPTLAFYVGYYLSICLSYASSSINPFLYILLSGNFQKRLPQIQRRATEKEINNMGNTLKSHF

inhibition	SMILES
< 50%	CCCc1cc(NC2CC2)c2cc(NC(=O)/C=C/c3ccc(C(F)(F)F)cc3)ccc2n1
< 50%	CCCc1cc(N)c2cc(NC(=O)/C=C/c3ccc(C(F)(F)F)cc3)ccc2n1 (stereo in doubt; form 1) [listing 2 of 2 here]
< 50%	CCCc1cc(N)c2cc(NC(=O)/C=C/c3ccc(C(F)(F)F)cc3)ccc2n1 (stereo in doubt; form 2)
< 50%	CCCc1cc(N2CCCCC2)c2cc(NC(=O)/C=C/c3ccc(C(F)(F)F)cc3)ccc2n1
< 50%	CCCc1cc(N)c2cc(NC(=O)/C=C/c3ccc(C(F)(F)F)cc3)ccc2n1 (stereo in doubt; form 3)
< 50%	CCCc1cc(N)c2cc(NC(=O)/C=C/c3cccc(Cl)c3)ccc2n1
< 50%	CCCc1cc(N)c2cc(NC(=O)Cc3ccc(C(F)(F)F)cc3)ccc2n1
< 50%	CCCc1cc(N)c2cc(C(=O)NCCc3ccc(C(F)(F)F)cc3)ccc2n1
< 50%	CCCc1cc(N)c2cc(NC(=O)/C=C/c3ccccc3)ccc2n1
< 50%	CCCc1cc(N)c2cc(NC(=O)c3ccc(C(F)(F)F)cc3)ccc2n1
< 50%	CCCc1cc(O)c2cc(NC(=O)/C=C/c3ccc(C(F)(F)F)cc3)ccc2n1
< 50%	CCCc1cc(N)c2cc(NC(=O)/C=C/c3ccc(O)cc3)ccc2n1
< 50%	CCCc1cc(N)c2cc(N(C)C(=O)CCc3ccc(C(F)(F)F)cc3)ccc2n1
< 50%	CCCc1cc(N)c2cc(NC(=O)C3CCC(c4ccc(Cl)cc4)CC3)ccc2n1 (configuration not stated)
< 50%	CCCc1cc(N)c2cc(NC(=O)CCc3ccccc3)ccc2n1
< 50%	CCCCc1cc(N)c2cc(NC(=O)/C=C/c3ccc(C(F)(F)F)cc3)ccc2n1
< 50%	CCCc1cc(N)c2cc(NC(=O)/C=C/c3ccc(C(C)(C)C)cc3)ccc2n1
< 50%	CCCc1cc(N)c2cc(NC(=O)CCc3ccc(C(F)(F)F)cc3)ccc2n1
< 50%	CCCc1cc(N(CC)CC)c2cc(NC(=O)/C=C/c3ccc(C(F)(F)F)cc3)ccc2n1
< 50%	CCCc1cc(N)c2cc(NC(=O)/C=C/c3ccc(C)cc3)ccc2n1
< 50%	CCCc1cc(N)c2cc(NC(=O)/C=C/c3ccc(Br)cc3)ccc2n1
< 50%	CC(C)(C)Cc1cc(N)c2cc(NC(=O)/C=C/c3ccc(C(F)(F)F)cc3)ccc2n1
< 50%	CCCc1cc(N)c2cc(NC(=O)/C=C/c3ccc(Cl)c(Cl)c3)ccc2n1
< 50%	CCCc1cc(N)c2cc(NC(=O)/C=C/c3ccc(F)cc3)ccc2n1
< 50%	CCCc1cc(N)c2cc(NC(=O)/C=C/c3ccc(N)cc3)ccc2n1
< 50%	CCCc1cc(NC)c2cc(NC(=O)/C=C/c3ccc(C(F)(F)F)cc3)ccc2n1
< 50%	CCCc1cc(N)c2cc(NC(=O)/C=C/c3ccccc3Cl)ccc2n1
< 50%	CCCc1cc(NCC)c2cc(NC(=O)/C=C/c3ccc(C(F)(F)F)cc3)ccc2n1
< 50%	CCCc1cc(N)c2cc(NC(=O)c3ccc(-c4ccc(Cl)cc4)cc3)ccc2n1
< 50%	CCCc1cc(N)c2cc(NC(=O)c3ccccc3)ccc2n1

Reference: ChEMBL document CHEMBL1137266, “4-Aminoquinoline melanin-concentrating hormone 1-receptor (MCH1R) antagonists” (Bioorg Med Chem Lett, 2006)
